{"source": "patent US20140275143A1", "about": "“Compositions Comprising An Opioid And An Additional Active Pharmaceutical Ingredient For Rapid Onset And Extended Duration Of Analgesia That May Be Administered Without Regard To Food” (MALLINCKRODT LLC, priority 2013, published 2014)", "key": {"[1]": {"test": "Dose proportionality and linearity of acetaminophen (Example 33)", "assay_type": "in vivo, human", "details": "CR OC/APAP; for AUC0-inf vs dose, Slope / AUC0-inf vs dose, y-Intercept / Cmax vs dose, Slope / Cmax vs dose, y-Intercept: linearity; for Dose-normalized AUC0-inf vs dose, Slope / Dose-normalized AUC0-inf vs dose, y-Intercept / Dose-normalized Cmax vs dose, Slope / Dose-normalized Cmax vs dose, y-Intercept: proportionality", "text": "(See selected example from Chart No. 1)\n(§1) One single-dose study (highest dosage) enrolled healthy recreational drug users; all other studies enrolled healthy subjects with specific exclusions for drug use.\n(§2) Area under the plasma APAP concentration-time curve from time 0 extrapolated to infinity (AUC0-inf) and maximum plasma concentration (Cmax)) were compared across dose levels of CR OC/APAP. […] For a linear PK system, the measures of exposure, such as maximal blood concentration (Cmax) or area under the curve from 0 to infinity (AUC) on the y-axis, are linearly (i.e., by a straight line) related to dose on the x-axis. Dose proportionality for CR OC/APAP was assessed; dose proportionality occurs when increases in the administered dose are accompanied by proportional increases in a measure of exposure, such as AUC or Cmax.\n(§3) AUC0-inf and Cmax were divided by dose (dose-normalized) for dose proportionality analyses. Dose normalization (calculated as plasma concentration divided by dose) was utilized to compare concentration across different dosage strengths. Dose linearity and proportionality were determined using linear regression of non-transformed data, including 95% confidence intervals (CIs) and 95% prediction limits. Slope, y-intercept, and R^2 were calculated. The slope and the intercept together define the linear relationship between dose and AUC, or dose and Cmax. The coefficient of determination, R^2, represents the proportion of variability in a data set that is accounted for by a statistical model."}, "[2]": {"test": "Dose proportionality and linearity of oxycodone (Example 34)", "assay_type": "in vivo, human", "details": "CR OC/APAP; for AUC0-inf vs dose, Slope / AUC0-inf vs dose, y-Intercept / Cmax vs dose, Slope / Cmax vs dose, y-Intercept: linearity; for Dose-normalized AUC0-inf vs dose, Slope / Dose-normalized AUC0-inf vs dose, y-Intercept / Dose-normalized Cmax vs dose, Slope / Dose-normalized Cmax vs dose, y-Intercept: proportionality", "description": "Data were pooled from randomized, crossover, single- and multiple-dose studies conducted in healthy adults (aged 18-55 years) to evaluate the dose proportionality and dose linearity of the oxycodone component of CR OC/APAP when administered as 1, 2, or 4 tablets (7.5 mg, 15 mg, or 30 mg oxycodone, respectively). […] (See selected example from Chart No. 1)\nThe following treatments were administered under fasted conditions: • Single-dose studies: 1, 2, or 4 tablets of CR OC/APAP (7.5 mg, 15 mg, or 30 mg oxycodone, respectively) (see selected example from Chart No. 1) administered orally once • Multiple-dose studies: 1 or 2 tablets of CR OC/APAP (7.5 mg or 15 mg oxycodone, respectively) (see selected example from Chart No. 1) administered every 12 hours for 4.5 days (9 doses)\nas §1\nas §2, with “plasma oxycodone” for “plasma APAP”\nas §3"}}}
{"smiles": "CC(=O)Nc1ccc(O)cc1", "note": "[acetaminophen]", "values": [{"measurement": "AUC0-inf vs dose, Slope", "setting": "[1]; Multiple-Dose", "value": 40.177}, {"measurement": "AUC0-inf vs dose, y-Intercept", "setting": "[1]; Multiple-Dose", "value": 2249.134}, {"measurement": "Cmax vs dose, Slope", "setting": "[1]; Multiple-Dose", "value": 7.079}, {"measurement": "Cmax vs dose, y-Intercept", "setting": "[1]; Multiple-Dose", "value": 816.140}, {"measurement": "AUC0-inf vs dose, Slope", "setting": "[1]; Single-Dose", "value": 41.021}, {"measurement": "AUC0-inf vs dose, y-Intercept", "setting": "[1]; Single-Dose", "value": 4024.292}, {"measurement": "Cmax vs dose, Slope", "setting": "[1]; Single-Dose", "value": 6.336}, {"measurement": "Cmax vs dose, y-Intercept", "setting": "[1]; Single-Dose", "value": 467.019}, {"measurement": "Dose-normalized AUC0-inf vs dose, Slope", "setting": "[1]; Multiple-Dose", "value": "−0.011"}, {"measurement": "Dose-normalized AUC0-inf vs dose, y-Intercept", "setting": "[1]; Multiple-Dose", "value": 50.557}, {"measurement": "Dose-normalized Cmax vs dose, Slope", "setting": "[1]; Multiple-Dose", "value": "−0.004"}, {"measurement": "Dose-normalized Cmax vs dose, y-Intercept", "setting": "[1]; Multiple-Dose", "value": 10.845}, {"measurement": "Dose-normalized AUC0-inf vs dose, Slope", "setting": "[1]; Single-Dose", "value": "−0.007"}, {"measurement": "Dose-normalized AUC0-inf vs dose, y-Intercept", "setting": "[1]; Single-Dose", "value": 52.943}, {"measurement": "Dose-normalized Cmax vs dose, Slope", "setting": "[1]; Single-Dose", "value": "−0.001"}, {"measurement": "Dose-normalized Cmax vs dose, y-Intercept", "setting": "[1]; Single-Dose", "value": 7.877}]}
{"smiles": "COc1ccc2c3c1O[C@H]1C(=O)CC[C@@]4(O)[C@@H](C2)N(C)CC[C@]314", "note": "[Oxycodone]", "values": [{"measurement": "AUC0-inf vs dose, Slope", "setting": "[2]; Multiple-Dose", "value": 14.151}, {"measurement": "AUC0-inf vs dose, y-Intercept", "setting": "[2]; Multiple-Dose", "value": "−3.774"}, {"measurement": "Cmax vs dose, Slope", "setting": "[2]; Multiple-Dose", "value": 1.640}, {"measurement": "Cmax vs dose, y-Intercept", "setting": "[2]; Multiple-Dose", "value": 0.362}, {"measurement": "AUC0-inf vs dose, Slope", "setting": "[2]; Single-Dose", "value": 11.093}, {"measurement": "AUC0-inf vs dose, y-Intercept", "setting": "[2]; Single-Dose", "value": 7.202}, {"measurement": "Cmax vs dose, Slope", "setting": "[2]; Single-Dose", "value": 1.050}, {"measurement": "Cmax vs dose, y-Intercept", "setting": "[2]; Single-Dose", "value": "−0.417"}, {"measurement": "Dose-normalized AUC0-inf vs dose, Slope", "setting": "[2]; Multiple-Dose", "value": 0.033}, {"measurement": "Dose-normalized AUC0-inf vs dose, y-Intercept", "setting": "[2]; Multiple-Dose", "value": 13.397}, {"measurement": "Dose-normalized Cmax vs dose, Slope", "setting": "[2]; Multiple-Dose", "value": "−0.003"}, {"measurement": "Dose-normalized Cmax vs dose, y-Intercept", "setting": "[2]; Multiple-Dose", "value": 1.712}, {"measurement": "Dose-normalized AUC0-inf vs dose, Slope", "setting": "[2]; Single-Dose", "value": "−0.024"}, {"measurement": "Dose-normalized AUC0-inf vs dose, y-Intercept", "setting": "[2]; Single-Dose", "value": 12.015}, {"measurement": "Dose-normalized Cmax vs dose, Slope", "setting": "[2]; Single-Dose", "value": "−0.001"}, {"measurement": "Dose-normalized Cmax vs dose, y-Intercept", "setting": "[2]; Single-Dose", "value": 1.041}]}
